Results reported in article PMC8180025, “Antibacterial, antifungal and antioxidant activities of whole plant chemical constituents of Rumex abyssinicus” (BMC Complementary Medicine and Therapies, 2021).
Values after ≈ are worked out from the molar mass of the structure shown. Values joined by “and” are separate entries in the source; they are usually repeats but may differ in a detail not shown here. Equal entries are not always repeated. Marks after values point to notes of the source that are not given here.

Experiments:
[1] = test system: Staphylococcus aureus ATCC25923; experiment: Broth microdilution MIC/MMC
MSSA01 = experiment: Checkerboard combination with antibiotic (FIC); format: cell-based, Staphylococcus aureus; details: combined with ciprofloxacin
S. aureus = experiment: Checkerboard combination with antibiotic (FIC); format: cell-based, Staphylococcus aureus; details: combined with ciprofloxacin
[2] = test system: bacterial and yeast species; experiment: Checkerboard combination with antibiotics, whole panel; format: cell-based; details: overall statement over the microorganisms tested
Method: (§1) The inoculum was initially prepared as described above. The test microorganisms were inoculated into a 96-well microtitre plates and a serial dilution of two antimicrobial agents: antibiotic and MeOH extract, compound 2 or 4. Each well consisted of unique combination of test sample and antibiotic concentrations. The plates were then incubated for 24 h at 37 °C. The analyses were performed in triplicates. And the antimicrobial agents interactions were evaluated by calculating the fractional inhibitory concentration (FIC) indices. The FIC is defined as follows: MIC of antibiotic tested in combination/MIC of antibiotic tested alone + MIC of extract/compound tested in combination/MIC of extract/compound tested alone. The FIC index is interpreted as FIC ≤ 0.5: synergistic effect, 0.5 < FIC ≤1: additive effect, 1 < FIC ≤2: indifferent effect, and FIC > 2.0: antagonistic effect.

[3] = test system: Cryptococcus neoformans H99; experiment: Broth microdilution MIC/MMC
MRSA03 = experiment: Checkerboard combination with antibiotic (FIC); format: cell-based, Staphylococcus aureus; details: combined with ciprofloxacin
C. albicans = experiment: Checkerboard combination with antibiotic (FIC); format: cell-based, Candida albicans; details: combined with fluconazole
[4] = test system: respiratory chain dehydrogenase in P. aeruginosa; experiment: Respiratory chain dehydrogenase enzyme activity (TTC reduction); format: cell-based, Pseudomonas aeruginosa; details: increasing concentration, 0, 30, 60 min
C. neoformans = experiment: Checkerboard combination with antibiotic (FIC); format: cell-based, Cryptococcus neoformans; details: combined with fluconazole
S. flexneri [5] = experiment: Cell membrane leakage assay (260 and 280 nm absorbing material); format: cell-based, Shigella flexneri; details: at concentrations equal to or two times MIC, concentration dependent
Method: (§2) The alteration of cell membrane of P. aeruginosa and S. flexneri was evaluated by measuring the optical densities at 260 nm and 280 nm of the bacterial suspensions in the presence and absence of MeOH extract and compound 2 using the method described by Karsha and Lakshmi.

S. flexneri [6] = experiment: Sugar leakage through membrane of bacteria; format: cell-based, Shigella flexneri; details: ½ MIC, 2 MIC, 12 h
[7] = Gallic acid equivalent antioxidant capacity (GEAC) assay; format: biochemical; details: laccase/ABTS, 420 nm after 240 s; mean ± SD
Method: The GEAC test was done as previously described with slight modifications. In a quartz cuvette, to 950 μL acetate buffer (pH =5.0, 100 mM), the following were added: 20 μL laccase (1 mM stock solution), 20 μL test sample, 10 μL ABTS (2,2′-azinobis(3-ethylbenzothiazoline-6-sulfonic acid) (74 mM stock solution). The purification of laccase from Sclerotinia sclerotiorum was done according to the protocol described. The sample concentrations in the assay mixture were 800, 400, 200, 100, 10 μg/mL for the extracts and 200, 100, 50, 25, 12.5, 6.25, 3.125, 1.56 μg/mL for the isolated compounds. The content of the generated ABTS^●+ radical was measured at 420 nm after 240 s reaction time and was converted to gallic acid equivalents by the use of a calibration curve (Pearson’s correlation coefficient: r = 0.997) constructed with 0, 4, 10, 14, 28, 56, 84 μM gallic acid standards rather than Trolox. Experiments were done in triplicate.

Shigella flexneri SDINT = experiment: Broth microdilution MIC/MMC
[8] = test system: methicillin resistant S. aureus MRSA03; experiment: Broth microdilution MIC/MMC
[9] = test system: methicillin sensitive S. aureus MSSA01; experiment: Broth microdilution MIC/MMC
[10] = test system: Candida albicans ATCC10231; experiment: Broth microdilution MIC/MMC
[11] = test system: respiratory chain dehydrogenase in S. flexneri; format: cell-based, Shigella flexneri; details: 0, 30, 60 min
P. aeruginosa [12] = experiment: Sugar leakage through membrane of bacteria; details: ½ MIC, 2 MIC, 12 h
Method: After incubation, the mixture was centrifuged at 12,000 rpm and the supernatant was collected. The concentration of reducing sugar was determined spectrophotometrically at 550 nm using 3–5 dinitro-salicylic acid (DNS) [29].

P. aeruginosa [13] = experiment: Checkerboard combination with antibiotic (FIC); format: cell-based, Pseudomonas aeruginosa; details: combined with ciprofloxacin
[14] = DPPH free radical scavenging assay; format: biochemical; details: mean ± SD, triplicate
Method: The free radical scavenging activity of extracts and compounds was evaluated according to described methods. The EC50 (μg/ml), which is the amount of sample necessary to inhibit by 50% the absorbance of free radical DPPH was calculated. Vitamin C was used as a standard control. All the analyses were carried out in triplicate.

S. flexneri [15] = experiment: Checkerboard combination with antibiotic (FIC); format: cell-based, Shigella flexneri; details: combined with ciprofloxacin
Method: as §1

P. aeruginosa [16] = experiment: Cell membrane leakage assay (260 and 280 nm absorbing material); format: cell-based, Pseudomonas aeruginosa; details: at concentrations equal to or two times MIC, concentration dependent
Method: as §2

[17] = test system: Pseudomonas aeruginosa ATCC27853; experiment: Broth microdilution MIC/MMC
red blood cells (RBCs) = format: cell-based, Wistar rats (Rattus novergicus)
Method: Three male Wistar rats (Rattus novergicus), aged 10–12 weeks and weighing 230 to 240 g were used. These animals were bred in the animal house of the University of Dschang, Cameroon. Efforts were also made to minimize animal suffering and to reduce the number of animal used in the experiment. All the rats were anaesthesized via intraperitoneal injection of the mixture of ketamine (50 mg/ kg body weight, BW) and xylazine (10 mg /kg BW), in a dose that is commonly used for operation purposes. Subsequently the unconscious animals were decapitated swiftly and the whole blood (10 mL) was collected by cardiac puncture into a conical tube containing Ethylene Diamine Tetra Acetic Acid (EDTA) as an anticoagulant. Erythrocytes were obtained by centrifugation at room temperature for 10 min at 1000 x g and were washed three times in PBS buffer. The cytotoxicity was evaluated as previously described.
The cytotoxic activity of extracts and isolated compounds from R. abyssinicus was studied by assessing the haemolytic activity against red blood cells (RBCs) using Triton X-100 as a positive control.

COc1cc(O)c2c(c1)C(=O)c1cc(C)cc(O)c1C2=O [Compound 2, Physcion]
MMC/MIC ([1]; S. aureus): 1 | MMC ([1]; S. aureus, sub-culturing after broth microdilution): 8 µg/mL | MIC ([1]; Staphylococcus aureus, ATCC25923): 8 µg/mL (≈ 28.1 µM) | FIC (fractional inhibitory concentration index) (MSSA01): 0.5625 | FICEx / FIC2 / FIC5 (MIC of extract/compound tested in combination/MIC of extract/compound tested alone) (MSSA01): 0.5 | FICA (MIC of antibiotic tested in combination/MIC of antibiotic tested alone) (MSSA01; 24 h at 37 °C): 0.0625 | Interpretation (of FIC index) (S. aureus): Synergistic (FIC ≤ 0.5: synergistic effect) | FIC (fractional inhibitory concentration index) (S. aureus; checkerboard): 0.375 | FICEx / FIC2 / FIC5 (MIC of extract/compound tested in combination/MIC of extract/compound tested alone) (S. aureus; checkerboard): 0.125 | FICA (MIC of antibiotic tested in combination/MIC of antibiotic tested alone) (S. aureus; checkerboard, 24 h at 37 °C): 0.25 | effect of the association with ciprofloxacin (bacteria) / fluconazole (yeasts) [2]: synergistic | MMC/MIC ([3]; C. neoformans): 1 | MMC ([3]; C. neoformans, sub-culturing after broth microdilution): 8 µg/mL | MIC ([3]; Cryptococcus neoformans, H99): 8 µg/mL (≈ 28.1 µM) | FIC (fractional inhibitory concentration index) (MRSA03): 0.5625 | FICEx / FIC2 / FIC5 (MIC of extract/compound tested in combination/MIC of extract/compound tested alone) (MRSA03): 0.5 | FICA (MIC of antibiotic tested in combination/MIC of antibiotic tested alone) (MRSA03; 24 h at 37 °C): 0.0625 | Interpretation (of FIC index) (C. albicans): Synergistic (FIC ≤ 0.5: synergistic effect) | FIC (fractional inhibitory concentration index) (C. albicans; checkerboard): 0.125 | FICEx / FIC2 / FIC5 (MIC of extract/compound tested in combination/MIC of extract/compound tested alone) (C. albicans; checkerboard): 0.0625 | FICA (MIC of antibiotic tested in combination/MIC of antibiotic tested alone) (C. albicans; checkerboard, 24 h at 37 °C): 0.0625 | respiratory chain dehydrogenase activity (TPF formed) [4]: significant decrease in the TPF formed | Interpretation (of FIC index) (C. neoformans): Synergistic (FIC ≤ 0.5: synergistic effect) | FIC (fractional inhibitory concentration index) (C. neoformans; checkerboard): 0.125 | FICEx / FIC2 / FIC5 (MIC of extract/compound tested in combination/MIC of extract/compound tested alone) (C. neoformans; checkerboard): 0.0625 | FICA (MIC of antibiotic tested in combination/MIC of antibiotic tested alone) (C. neoformans; checkerboard, 24 h at 37 °C): 0.0625 | leakage of biological material absorbing at 260 and 280 nm (S. flexneri [5]): induced leakage | appearance of reducing sugar in the bacterial culture suspension (S. flexneri [6]): increased | Gallic acid equivalent antioxidant capacity (GEAC) [7]: 104.87 ± 1.43 μg/mL and 106.03 ± 0.87^d μg/mL | MMC/MIC (Shigella flexneri SDINT; S. flexneri): 2 | MMC (Shigella flexneri SDINT; S. flexneri, sub-culturing after broth microdilution): 16 µg/mL | MIC (Shigella flexneri SDINT; Shigella flexneri): 8 µg/mL (≈ 28.1 µM) | MMC/MIC ([8]; MRSA03): 2 | MMC ([8]; MRSA03, sub-culturing after broth microdilution): 32 µg/mL | MIC ([8]; Staphylococcus aureus): 16 µg/mL (≈ 56.3 µM) | MMC/MIC ([9]; MSSA01): 2 | MMC ([9]; MSSA01, sub-culturing after broth microdilution): 32 µg/mL | MIC ([9]; Staphylococcus aureus): 16 µg/mL (≈ 56.3 µM) | MMC/MIC ([10]; C. albicans): 1 | MMC ([10]; C. albicans, sub-culturing after broth microdilution): 8 µg/mL | MIC ([10]; Candida albicans, ATCC10231): 8 µg/mL (≈ 28.1 µM) | respiratory chain dehydrogenase activity (TPF formed) [11]: significant decrease in the TPF formed | appearance of reducing sugar in the bacterial culture suspension (P. aeruginosa [12]): increased | Interpretation (of FIC index) (P. aeruginosa [13]): Synergistic (FIC ≤ 0.5: synergistic effect) | FICEx / FIC2 / FIC5 (MIC of extract/compound tested in combination/MIC of extract/compound tested alone) (P. aeruginosa [13]; checkerboard): 0.125 | FICA (MIC of antibiotic tested in combination/MIC of antibiotic tested alone) (P. aeruginosa [13]; checkerboard, 24 h at 37 °C): 0.125 | DPPH free radical scavenging activity (EC50) [14]: 3.08 ± 0.44^e μg/mL | Interpretation (of FIC index) (S. flexneri [15]): Synergistic (FIC ≤ 0.5: synergistic effect) | FIC (fractional inhibitory concentration index) (S. flexneri [15]; checkerboard): 0.281 | FICEx / FIC2 / FIC5 (MIC of extract/compound tested in combination/MIC of extract/compound tested alone) (S. flexneri [15]; checkerboard): 0.25 | FICA (MIC of antibiotic tested in combination/MIC of antibiotic tested alone) (S. flexneri [15]; checkerboard, 24 h at 37 °C): 0.031 | leakage of biological material absorbing at 260 and 280 nm (P. aeruginosa [16]): induced leakage | MMC/MIC ([17]; P. aeruginosa): 2 | MMC ([17]; P. aeruginosa, sub-culturing after broth microdilution): 16 µg/mL | MIC ([17]; Pseudomonas aeruginosa, ATCC27853): 8 µg/mL (≈ 28.1 µM)

Triton X-100
lysis of RBCs (red blood cells (RBCs)): 100%
